From article PMC3356383, “Efficacious Intermittent Dosing of a Novel JAK2 Inhibitor in Mouse Models of Polycythemia Vera” (PLoS ONE, 2012)
pIC50: −log10 of the molar value. Marks after values point to notes of the source that are not given here.

What was measured:
BaF3 (JAK2 WT) cells = experiment: Cell proliferation, ViaLight assay; type: cell-based; conditions: Mus musculus, 48 hour, EPO-stimulated
Procedure: (§1) Cell proliferation was measured by ViaLight (Lonza Group Ltd) assay as follows. Cells (1000–2000) were seeded into 384-well plates and incubated 16 hours @ 37°C, 5% CO2. […] Cells were lysed and ATP detected as per the manufacturer protocol.

H2122 cells = experiment: Cell proliferation, ViaLight assay; type: cell-based; conditions: Homo sapiens, NCI-H2122, 48 hour, epithelial lung cancer cell line
Procedure: as §1

CTLL-2 cells = experiment: Cell proliferation, ViaLight assay; type: cell-based
Procedure: as §1

BaF3 (JAK2 V617F) cells = experiment: Cell proliferation, ViaLight assay; type: cell-based; conditions: Mus musculus, 48 hour
Procedure: as §1

[1] = system: lung epithelial cancer cell lines, including H2122 cells; experiment: Cell proliferation of several lung epithelial cancer cell lines; type: cell-based; conditions: on average
Procedure: as §1

[2] = system: JAK2V617F-Luciferase expressing cells; experiment: Bone marrow transplant mice expressing JAK2V617F-Luciferase (PV model); type: in vivo
Procedure: Production of retrovirus containing cDNA of JAK2 V617F fused to luciferase 2 was performed as described previously as was transplantation of bone marrow cells infected with virus into irradiated mice.
Imaging of mice expressing JAK2 V617F-Luciferase was conducted as described previously.
Measurement of the level of JAK2 V617F allele in the tissues of transplanted mice was done as described previously.
Cells were stained in PBS, 0.5% BSA with antibodies for 15 min on ice. Stained cells were acquired on a 4-laser LSR-II (BD Biosciences) and data analyzed using FlowJo software (Treestar). Dead cells were labeled with the blue fluorescent LIVE/DEAD reactive dye (Invitrogen) and excluded from the analysis.

pSTAT5 = experiment: Acute PK/PD: pSTAT5 in peripheral blood of darbepoetin-stimulated mice; type: in vivo, C57BL/6 mice; conditions: Mus musculus
Procedure: C57BL/6 mice (Charles River Laboratories, Wilmington, MA) aged 4–6 weeks were dosed with MRLB-11055 in vehicle (10%v/v polysorbate 80) or with vehicle alone. All dosing was done by oral gavage (10 ml/kg body weight/day). Blood sampling and measurement of pSTAT5 in the blood of darbepoetin-stimulated mice were measured as described previously. The level of MRLB-11055 in the blood of animals was measured by diluting blood samples (10 uL) with citrate buffer (30 uL) and precipitating with acetonitrile (200 uL) containing a structural analog as internal standard. Precipitated samples were filtered, water (200 uL) was added and the sample injected onto a C18 column (Waters Atlantis T3, 2.1 mm x 30 mm). Electrospray ionization with multiple reaction monitoring was used for MS/MS detection.

220 recombinant kinases = experiment: Kinase profiling (Millipore), whole panel; type: biochemical; conditions: 198 of 220 tested kinases; based on JAK2 (JH1-JH2) IC50
Procedure: Kinase profiling was conducted by Millipore (Billerica, MA).

[3] = system: peripheral blood cell populations; experiment: Cell populations in peripheral blood of normal mice; type: in vivo, C57BL/6 mice; conditions: 54 mpk
Description: JAK2 and its family members JAK1 and JAK3 are known to signal downstream of cytokines that play essential roles in the development of lymphoid cell populations. To examine more thoroughly the effects of JAK2 inhibition on lymphoid cells, we analyzed wild-type (C57BL/6) mice treated with 54 mpk MRLB-11055 for 3 days, 6 days or up to 5 cycles of 3 days (“on”) followed by a 4 day holiday (“off”).
Supplementary file pone.0037207.s005.doc: Table S3 Effect of MRLB-11055 on Cell Populations in Peripheral Blood of Normal Mice. Cell counts measured by Advia. Cycles refer to 3 days of treatment followed by a 4 day holiday. *p<0.01 and **p<0.001 in Student T test when comparing vehicle with treatment. HCT, hematocrit; RBC, red blood cells; HGB, hemoglobin; WBC, white blood cells. (DOC) Click here for additional data file.

[4] = 2 cycles (3 days treatment, 4 day holiday)
[5] = 5 cycles (3 days treatment, 4 day holiday)

SMILES: NC(=O)c1cnc(N[C@H](C2CC2)C(F)(F)F)c2c1[nH]c1cc(-c3cnc(N)nc3)ccc12 [MRLB-11055]
- pIC50 (BaF3 (JAK2 WT) cells): 7.85
- pIC50 (H2122 cells): 5.72
- Fold more potent against IL-2-dependent CTLL cells than JAK2V617F BaF3 cells in proliferation assays (CTLL-2 cells): 2 fold
- pIC50 (CTLL-2 cells; Mus musculus, CTLL-2, 48 hour, Vialight): 7.89
- pIC50 (BaF3 (JAK2 V617F) cells): 7.54
- Proliferation IC50 of lung epithelial cancer cell lines, fold higher than for JAK2-dependent cell lines [1]: 50–70 fold
- Reduction in spleen BLI over first 3 days of treatment ([2]; 54 mpk oral once daily for 3 days, cycle 1): ~20 fold
- Spleen BLI, splenic CD71+TER119+ cells and V617F allele burden in peripheral blood ([2]; 54 mpk oral once daily, Day 3, no further benefit out to Day 7): Significant reductions in all three endpoints
- Spleen weight at end of second holiday period ([2]; 54 mpk, 2 cycles): normalization in spleen weight
- Hematocrit after 2 cycles ([2]; 54 mpk, 2 cycles of 3 days on, 4 days off, decreased from 53%, vehicle 53% to 56%): 42%
- CD71+TER119+ cells in spleen relative to vehicle controls ([2]; 54 mpk, end of second holiday period): significant reduction
- Level of pSTAT5 in spleens of JAK2V617F-Luciferase mice ([2]; 1 hour post-dose): significantly inhibited
- Increase in spleen BLI over the 4 day holiday ([2]; 4 days after 3 days of 54 mpk, cycle 1): ~4 fold
- Spleen BLI after holiday, fold less than pre-treatment levels ([2]; end of cycle 1 (3 days on, 4 days off), 54 mpk): about 5 fold
- inhibition at 36 mg/kg (pSTAT5; 36 mg/kg oral, maintained over 12 hours): > 90%
- pIC50 (pSTAT5; oral dosing, mice simultaneously injected with darbepoetin, read-out: IC50 for inhibition of pSTAT5 in peripheral blood in vivo): 5.92
- Fold selectivity over JAK2 for 198/220 kinases (220 recombinant kinases): >25-fold over JAK2
- Baso-phils [3, 4]: 0.03 ± 0.01 * x 10^3/µl
- Eosino-phils [3, 4]: 0.14 ± 0.06 x 10^3/µl
- HCT [3, 4]: 51.6 ± 1.5* %
- HGB [3, 4]: 13.4 ± 0.4** g/dL
- Lympho-cytes [3, 4]: 6.2 ± 1.6 x 10^3/µl
- Mono-cytes [3, 4]: 0.04 ± 0.01 x 10^3/µl
- Neutro-phils [3, 4]: 0.78 ± 0.18 x 10^3/µl
- Platelets [3, 4]: 2244 ± 85** x 10^3/µl
- Platelets MPV [3, 4]: 6.9 ± 0.2** fL
- RBC [3, 4]: 9.65 ± 0.27* x 10^6/µl
- Retic [3, 4]: 803 ± 18** x 10^9/L
- WBC [3, 4]: 7.4 ± 1.7 x 10^3/µl
- Baso-phils [3, 5]: 0.04 ± 0.01 x 10^3/µl
- Eosino-phils [3, 5]: 0.06 ± 0.03 * x 10^3/µl
- HCT [3, 5]: 50.3 ± 0.6** %
- HGB [3, 5]: 13.0 ± 0.1** g/dL
- Lympho-cytes [3, 5]: 4.7 ± 1.5** x 10^3/µl
- Mono-cytes [3, 5]: 0.05 ± 0.01 x 10^3/µl
- Neutro-phils [3, 5]: 0.86 ± 0.34 x 10^3/µl
- Platelets [3, 5]: 2376 ± 171 ** x 10^3/µl
- Platelets MPV [3, 5]: 6.8 ± 0.1** fL
- RBC [3, 5]: 9.41 ± 0.13** x 10^6/µl
- Retic [3, 5]: 911 ± 64** x 10^9/L
- WBC [3, 5]: 5.9 ± 1.9* x 10^3/µl
- Baso-phils ([3]; 3 days): 0.03 ± 0.03 x 10^3/µl
- Eosino-phils ([3]; 3 days): 0.26 ± 0.09 x 10^3/µl
- HCT ([3]; 3 days): 50.4 ± 0.8** %
- HGB ([3]; 3 days): 13.7 ± 0.2** g/dL
- Lympho-cytes ([3]; 3 days): 4.2 ± 0.9** x 10^3/µl
- Mono-cytes ([3]; 3 days): 0.05 ± 0.02 x 10^3/µl
- Neutro-phils ([3]; 3 days): 0.61 ± 0.07 x 10^3/µl
- Platelets ([3]; 3 days): 1611 ± 85** x 10^3/µl
- Platelets MPV ([3]; 3 days): 6.6 ± 0.4 fL
- RBC ([3]; 3 days): 9.29 ± 0.04** x 10^6/µl
- Retic ([3]; 3 days): 43 ± 6** x 10^9/L
- WBC ([3]; 3 days): 5.3 ± 1.0** x 10^3/µl
- Baso-phils ([3]; 6 days): 0.02 ± 0.01** x 10^3/µl
- Eosino-phils ([3]; 6 days): 0.19 ± 0.06 x 10^3/µl
- HCT ([3]; 6 days): 48.7 ± 2.5** %
- HGB ([3]; 6 days): 12.9 ± 0.5** g/dL
- Lympho-cytes ([3]; 6 days): 3.5 ± 0.4** x 10^3/µl
- Mono-cytes ([3]; 6 days): 0.05 ± 0.02 x 10^3/µl
- Neutro-phils ([3]; 6 days): 0.60 ± 0.16 x 10^3/µl
- Platelets ([3]; 6 days): 2534 ± 88** x 10^3/µl
- Platelets MPV ([3]; 6 days): 6.1 ± 0.2** fL
- RBC ([3]; 6 days): 8.80 ± 0.39** x 10^6/µl
- Retic ([3]; 6 days): 162 ± 24** x 10^9/L
- WBC ([3]; 6 days): 4.6 ± 0.6** x 10^3/µl
